Results from patent US9920030B2 (priority 2006, dated 2018).
Where two headings read alike, the source gives them in different places.

How the values were obtained:
Type in all cases: in vivo
[1] = tested on: Plasmopara vilicola (the causal agent of grape downy mildew); assay: Test A: grape downy mildew, test suspension sprayed on grape seedlings after inoculation, visual disease rating; settings: for pest or weed control at 40 ppm: Plasmopara, 144 h, read-out: Percent Disease Control, Test A
Outline: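 Curative spray: spores applied first, plants kept 24 h in saturated air at 20 °C and dried before treatment, then 5 days at 20 °C plus 24 h saturated. Suspension: acetone (3% of volume) in 1:1 acetone/water, 250 ppm Trem 014, sprayed to run-off (200 ppm ≈ 500 g/ha); visual 0–100 control rating.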

[2] = tested on: Phytophthora infestans (the causal agent of tomato late blight); assay: whole plant or invertebrate; settings: for pest or weed control at 40 ppm: Phytophthora infestans, 144 h, read-out: Percent Disease Control, Test B
[3] = tested on: Phytophthora infestans (the causal agent of tomato late blight); assay: whole plant or invertebrate; settings: for pest or weed control at 40 ppm: Phytophthora infestans, 96 h, read-out: Percent Disease Control, Test C
[4] = compounds without asterisk (application rate not given), 100 = 100% disease control, 0 = no control relative to the controls

Structure (SMILES)	Percent Disease Control, Test A ([1]; * tested at 40 ppm)	Percent Disease Control, Test B ([2]; * tested at 40 ppm)	Percent Disease Control, Test C ([3]; * tested at 40 ppm)	Percent Disease Control, Test A [1, 4]	Percent Disease Control, Test B [2, 4]	Percent Disease Control, Test C [3, 4]	other results
Cc1cc(C(F)(F)F)nn1CC(=O)N1CCC(c2nc(C3=NOC(c4cccs4)C3)cs2)CC1 (stereo not drawn) [Compound 162]	100%	100%	99%	–	–	–	–
Cc1cc(C)n(CC(=O)N2CCC(c3nc(C4=NO[C@]5(CCc6ccccc65)C4)cs3)CC2)n1 [Compound 165]	–	–	–	–	–	–	Percent Disease Control, Test A ([1]; ** tested at l0 ppm): 99%; Percent Disease Control, Test B ([2]; ** tested at l0 ppm): 100%; Percent Disease Control, Test C ([3]; ** tested at l0 ppm): 99%
O=C(Cn1nc(Cl)cc1Cl)N1CCC(c2nc(C3=NOC(c4ccccc4)C3)cs2)CC1 (stereo not drawn) [Compound 166]	–	–	–	–	–	–	Percent Disease Control, Test A ([1]; ** tested at l0 ppm): 100%; Percent Disease Control, Test B ([2]; ** tested at l0 ppm): 100%; Percent Disease Control, Test C ([3]; ** tested at l0 ppm): 98%
Cc1cc(C(F)(F)F)nn1CC(=O)N1CCC(c2nc(C3=NOC4(CCCCC4)C3)cs2)CC1 [Compound 169]	–	–	–	100%	100%	99%	–
Cc1cc(C(F)(F)F)nn1CC(=O)N1CCC(c2nc(C3=NOC4(CCOCC4)C3)cs2)CC1 [Compound 173]	100%	100%	99%	–	–	–	–
Cc1cc(C(F)(F)F)nn1CC(=O)N1CCC(c2nc(C3=NOC4(CCCCCC4)C3)cs2)CC1 [Compound 174]	100%	100%	99%	–	–	–	–
CC(=O)N1N=C(c2csc(C3CCN(C(=O)Cn4nc(C(F)(F)F)cc4C)CC3)n2)OC12CCCc1ccccc12 (stereo not drawn) [Compound 177]	93%	100%	99%	–	–	–	–
Cc1cccc(C)c1[C@H]1CC(c2csc(C3CCN(C(=O)Cn4nc(C(F)(F)F)cc4C)CC3)n2)=NO1 [Compound 178, 1-[4-[4-[(5R)-5-(2,6-dimethylphenyl)-4,5-dihydro-3-isoxazolyl]-2-thiazolyl]-1-piperidinyl]-2-[5-methyl-3-(trifluoromethyl)-1H-pyrazol-1-yl]ethanone]	–	–	–	–	–	–	pest or weed control at 40 ppm ([1]; * tested at 40 ppm): 100%; pest or weed control at 40 ppm [2]: 100%; pest or weed control at 40 ppm [3]: 99%
Cc1cc(C)c([C@H]2CC(c3csc(C4CCN(C(=O)Cn5nc(C(F)(F)F)cc5C)CC4)n3)=NO2)c(C)c1 [Compound 179, 1-[4-[4-[(5R)-4,5-dihydro-5-(2,4,6-trimethylphenyl)-3-isoxazolyl]-2-thiazolyl]-1-piperidinyl]-2-[5-methyl-3-(trifluoromethyl)-1H-pyrazol-1-yl]ethanone]	–	–	–	–	–	–	pest or weed control at 40 ppm ([1]; * tested at 40 ppm): 99%; pest or weed control at 40 ppm [2]: 100%; pest or weed control at 40 ppm [3]: 98%
Cc1cc(C(F)(F)F)nn1CC(=O)N1CCC(c2nc(C3=NOC(c4ccncc4)C3)cs2)CC1 (stereo not drawn) [Compound 180]	–	–	–	50%	100%	99%	–
CC(=O)N1N=C(c2csc(C3CCN(C(=O)Cn4nc(C(F)(F)F)cc4C)CC3)n2)OC1c1ccccc1 (stereo not drawn) [Compound 181]	–	–	–	80%	100%	97%	–
CC(=O)N1N=C(c2csc(C3CCN(C(=O)Cn4nc(C(F)(F)F)cc4C)CC3)n2)OC1(C)c1ccccc1 (stereo not drawn) [Compound 182]	–	–	–	99%	100%	97%	–
Cc1cc(C(F)(F)F)nn1CC(=O)N1CCC(c2nc(C3=NNC(c4ccccc4)C3)cs2)CC1 (stereo not drawn) [Compound 183]	92%	92%	33%	–	–	–	–
Cc1cc(C(F)(F)F)nn1CC(=O)N1CCC(c2nc(C3=NN(C)C(c4ccccc4)C3)cs2)CC1 (stereo not drawn) [Compound 184]	99%	95%	73%	–	–	–	–
Cc1cc(C(F)(F)F)nn1CC(=O)N1CCC(c2nc(C3=NO[C@]4(COc5ccccc54)C3)cs2)CC1 [Compound 185, 2-[5-methyl-3-(trifluoromethyl)-1H-pyrazol-1-yl]-1-[4-[4-(3R)-spiro[benzofuran-3(2H),5′(4′H)-isoxazol]-3′-yl-2-thiazolyl]-1-piperidinyl]ethanone]	–	–	–	–	–	–	pest or weed control at 40 ppm ([1]; * tested at 40 ppm): 100%; pest or weed control at 40 ppm [2]: 100%; pest or weed control at 40 ppm [3]: 98%
Cc1cc(C(F)(F)F)nn1CC(=O)N1CCC(c2nc(C3=NOC(N4CCCC4=O)C3)cs2)CC1 (stereo not drawn) [Compound 188]	99%	100%	99%	–	–	–	–
Cc1cc(C(F)(F)F)nn1CC(=O)N1CCC(c2nc(C3=NOC(c4ccccc4Br)C3)cs2)CC1 (stereo not drawn) [Compound 189]	100%	100%	99%	–	–	–	–
Cc1cc(C(F)(F)F)nn1CC(=O)N1CCC(c2nc(CN3C(=O)c4ccccc4C3=O)cs2)CC1 [Compound 191]	–	–	–	99%	100%	99%	–
Cc1cc(C(F)(F)F)nn1CC(=O)N1CCC(c2nc(C3=NOC4(CCCCc5ccccc54)C3)cs2)CC1 (stereo not drawn) [Compound 192]	99%	100%	99%	–	–	–	–

Structure (SMILES)	Percent Disease Control, Test A ([1]; * tested at 40 ppm)	Percent Disease Control, Test B ([2]; * tested at 40 ppm)	Percent Disease Control, Test C ([3]; * tested at 40 ppm)	Percent Disease Control, Test A [1, 4]	Percent Disease Control, Test B [2, 4]	Percent Disease Control, Test C [3, 4]	other results
Cc1cc(C(F)(F)F)nn1CC(=O)N1CCC(c2nc(C3=NOC4(CCC4)C3)cs2)CC1 [Compound 193]	100%	100%	99%	–	–	–	–
Cc1cc(C(F)(F)F)nn1CC(=O)N1CCC(c2nc(C3=NOC4(CCN(C(=O)OC(C)(C)C)CC4)C3)cs2)CC1 [Compound 194]	94%	100%	99%	–	–	–	–
Cc1cc(C(F)(F)F)nn1CC(=O)N1CCC(c2nc(C3=NOC4(CCNCC4)C3)cs2)CC1 [Compound 195]	–	–	–	48%	92%	80%	–
CC(=O)N1CCC2(CC1)CC(c1csc(C3CCN(C(=O)Cn4nc(C(F)(F)F)cc4C)CC3)n1)=NO2 [Compound 196]	99%	100%	99%	–	–	–	–
CC(=O)N1N=C(c2csc(C3CCN(C(=O)Cn4nc(C(F)(F)F)cc4C)CC3)n2)CC1c1ccccc1 (stereo not drawn) [Compound 197]	89%	100%	90%	–	–	–	–
Cc1cc(C(F)(F)F)nn1CC(=O)N1CCC(c2nc(C3=NOC(C4OCCO4)C3)cs2)CC1 (stereo not drawn) [Compound 199]	–	–	–	91%	99%	98%	–
Cc1cc(C(F)(F)F)nn1CC(=O)N1CCC(c2nc(C3=NOC(C4(C)CO4)C3)cs2)CC1 (stereo not drawn) [Compound 200]	–	–	–	80%	100%	90%	–
Cc1ncsc1C1CC(c2csc(C3CCN(C(=O)Cn4nc(C(F)(F)F)cc4C)CC3)n2)=NO1 (stereo not drawn) [Compound 201]	99%	100%	99%	–	–	–	–
Cc1cc(C(F)(F)F)nn1CC(=O)N1CCC(c2nc(C3=NOC4c5ccccc5S(=O)(=O)C34)cs2)CC1 (stereo not drawn) [Compound 202]	–	–	–	95%	100%	98%	–
Cc1cc(C(F)(F)F)nn1CC(=O)N1CCC(c2nc(-c3ccon3)cs2)CC1 [Compound 203]	99%	100%	92%	–	–	–	–
Cc1cc(C(F)(F)F)nn1CC(=O)N1CCC(c2nc(C3=NOC(Oc4ccccc4)C3)cs2)CC1 (stereo not drawn) [Compound 204]	99%	100%	99%	–	–	–	–
Cc1ccccc1C1(C)CC(c2csc(C3CCN(C(=O)Cn4nc(C(F)(F)F)cc4C)CC3)n2)=NO1 (stereo not drawn) [Compound 205]	99%	100%	99%	–	–	–	–
COc1cccc(OC)c1C1CC(c2csc(C3CCN(C(=O)Cn4nc(C(F)(F)F)cc4C)CC3)n2)=NO1 (stereo not drawn) [Compound 206]	99%	100%	99%	–	–	–	–
Cc1cc(C(F)(F)F)nn1CC(=O)N1CCC(c2nc(CN3C(=O)CCC3=O)cs2)CC1 [Compound 207]	–	–	–	40%	83%	0%	–
Cc1cc(C(F)(F)F)nn1CC(=O)N1CCC(c2nc(CN3C(=O)OC(C)(C)C3=O)cs2)CC1 [Compound 208]	–	–	–	79%	64%	0%	–
Cc1cc(C(F)(F)F)nn1CC(=O)N1CCC(c2nc(C3=NOC4(c5ccccc5)CCCCC34)cs2)CC1 (stereo not drawn) [Compound 209]	99%	100%	90%	–	–	–	–
Cc1cc(C(F)(F)F)nn1CC(=O)N1CCC(c2nc(-c3cc(-c4ccccc4C(=O)O)on3)cs2)CC1 [Compound 210]	–	–	–	91%	100%	83%	–
Cc1cc(C(F)(F)F)nn1CC(=O)N1CCC(c2nc(C3=NOC(OC(C)(C)C)C3)cs2)CC1 (stereo not drawn) [Compound 211]	100%	100%	99%	–	–	–	–
Cc1cc(C(F)(F)F)nn1CC(=O)N1CCC(c2nc(C3=NOC4(CCN(c5ccccc5)CC4)C3)cs2)CC1 [Compound 212]	98%	100%	99%	–	–	–	–
